Experimental data as given in US9018173B2, “Materials and methods for suppressing inflammatory and neuropathic pain” (Indiana University Research and Technology Corp., priority 2010, dated 2015).
Like-named read-outs stand apart in the source and are kept apart here. Residues, ends and D or L forms follow the SMILES beside them.

Assays:
spatial memory = experiment: Morris water maze test of spatial/reference memory; assay type: in vivo, mice; conditions: 10 mg/kg i.p., 1 h-7 d after administration
Procedure: The rotarod test for motor coordination was performed as described with slight modifications. Following i.p. injection of vehicle or peptides, mice were tested with three trials each of fast and slow acceleration. The Morris water maze test was used to test reference/spatial memory. Mice were trained prior to the i.p. injection of TAT-Scramble or TAT-CBD3 peptides for 4 consecutive days (4 trials/day). Performance was evaluated 3 days following injection. Morris water maze test of spatial/reference memory. The Morris water maze test was used to test spatial memory. The maze consisted of a plastic pool (100 cm in diameter and 60 cm in depth) filled with water to a depth of 26.5 cm, with a clear Plexiglas stand (10 cm in diameter and 26 cm in height [i.e., 0.5 cm below the water's surface]) used as the hidden goal platform. The mice were trained prior to the injection for 4 consecutive days (4 trials/day). For each daily block of four trials, the mice were placed in the pool facing the wall. Trials were initiated from each of the four possible start locations (north, east, south, west) in a randomized manner. A maximum of 60 sec was allowed for each mouse to find the hidden platform. […] Mice were excluded from the study if their average latency to locate the platform on day 4 of the trials was greater than 50 sec. […]

[1] = test system: dorsal root ganglion neurons; conditions: 10 μM, 12 h
[2] = molecular target: T1, interaction between tubulin and CRMP-2 (Rattus norvegicus, UniProt P47942); experiment: Immunoprecipitation of CRMP-2/tubulin in the presence of peptides; assay type: binding; conditions: spinal cord lysates
T1 construct: from tissue; host or cells: rat brain / spinal cord lysates (tubulin)

[3] = test system: CRMP-2 binding to L1 and Ct-dis regions of CaV2.2; experiment: In vitro binding of L1-GST and Ct-dis-GST fusion proteins to CRMP-2; set-up: species or system rat; conditions: peptides 10 μM
Excerpt: In Vitro Protein Binding Assays. Using Vector NTI (v. 11; Invitrogen) software, primers were designed to amplify regions corresponding to the first cytoslic loop (L1; amino acids 356 to 483) and the distal end of the C-terminus (Ct-dis; amino acids 2133 to 2348) of rat CaV2.2 cDNA from P3 rat brain cDNA. The primers harbored restriction sites (Bam HI or Bgl II (5′) and Eco RI or Mfe I (3′)) to facilitate cloning into […]. In addition to the GST-tag, this vector contains the Glu tag, a sequence of six amino acids (EYMPME). Correctly-amplified PCR products and parent pGex-3x-Glu vector were digested with the indicated restriction enzymes, and then extracted following electrophoresis on an agarose gel. The extracted DNAs were quantified (Nanodrop 1000, Thermo Scientific), and ligations were performed using 6:1 and 3:1 insert to vector molar ratios. […]
Monoclonal Glu antibody-saturated Protein G beads (GE Healthcare) carrying various CaV2.2 cytoplasmic loop constructs were incubated with rat brain synaptosome protein in the presence of TAT control or TAT CBD3 peptides (10 μM) in a total reaction volume of 400 μl. […] The samples were then washed three times with a 1000-fold excess of binding buffer, and the proteins were eluted in 40 μl of SDS gel buffer and boiled for 5 min, after which 20 μl of each assay was run on SDS-PAGE and analyzed by immunoblotting with CRMP-2.

[4] = test system: formalin-induced nocifensive behavior; experiment: Formalin test; assay type: in vivo, rat; conditions: 30 μM intraplantar, 30 min before formalin
Procedure: Referring now to FIG. 16. TAT-CBD3 reduces acute, inflammatory and neuropathic pain. (FIG. 16A) Time course of number of flinches following subcutaneous (dorsal surface of paw) injection of formalin (2.5%; 50 μl saline) in animals pretreated with peptides (3-100 μM; 20 μl dorsal surface of paw) 30 min before formalin (n=4-10). (FIG. 16B) The effect of peptides on number of flinches on formalin-induced phase 1 (0-10 min) and phase 2 (15-60 min). *, p<0.05 versus formalin-injected animals. (FIG. 16C) Formalin induces paw edema. Paw thickness was measured 1 h after injection of saline, formalin, and formalin+peptides (100 μM). *, p<0.05 versus saline-injected animals. (FIG. 16D) Pretreatment with TAT-CBD3 attenuates capsaicin-evoked nocifensive behavior. Vehicle (0.3% DMSO) or peptides (concentrations as indicated) in saline (40 μL) was instilled corneally and nocifensive behavior noted. […]
Behavioral analyses. […] For the eye-wipe test, vehicle, TAT control or TAT CBD3 peptides (30 μM, 40 μl) were pipetted directly into the right eye and the resulting nocifensive behavior was measured. […] This nocifensive behavior was recorded for five minutes and followed by capsaicin (3 μM; 40 μl saline) application into the pretreated eye. […]

Molecule | coordination or spatial memory (Morris water maze) (spatial memory) | cell viability (MTT, absorbance at 490 nm) [1] | cell viability (MTT, absorbance at 490 nm) ([1]; listed as TAT CBD3) | interaction between tubulin and CRMP-2 (immunoprecipitation) [2] | interaction between CRMP-2 and L1 or Ct-dis regions of CaV2.2 [3] | formalin-induced flinching, phase 1 and phase 2 [4]
CC(C)C[C@H](NC(=O)CNC(=O)[C@H](CCCNC(=N)N)NC(=O)[C@@H]1CCCN1C(=O)[C@@H](NC(=O)CNC(=O)[C@H](CCCNC(=N)N)NC(=O)[C@H](CC(C)C)NC(=O)[C@H](CCC(=O)O)NC(=O)[C@H](C)NC(=O)[C@H](CC(C)C)NC(=O)[C@H](CCCNC(=N)N)NC(=O)[C@H](CO)NC(=O)[C@H](CCCNC(=N)N)NC(=O)[C@H](C)NC(=O)[C@H](CCCNC(=N)N)NC(=O)[C@H](CCCNC(=N)N)NC(=O)[C@H](CCCNC(=N)N)NC(=O)[C@H](CCC(N)=O)NC(=O)[C@H](CCCNC(=N)N)NC(=O)[C@H](CCCNC(=N)N)NC(=O)[C@H](CCCCN)NC(=O)[C@H](CCCCN)NC(=O)[C@H](CCCNC(=N)N)NC(=O)CNC(=O)[C@@H](N)Cc1ccc(O)cc1)C(C)C)C(=O)O [TAT-CBD3] (H-YGRKKRRQRRRARSRLAELRGVPRGL-OH; N-terminus and C-terminus assumed) | did not affect coordination or spatial memory | without affecting cell viability | does not affect cell viability | – | – | –
ARSRLAELRGVPRGL (CBD3) | – | – | – | did not affect | disrupted the interaction | displayed blunted nociceptive behaviors in both phases
